Assay results: patent US8227428B2, “Anti-infammatory macrolide” (Glaxo Group Limited, priority 2009, dated 2012)

Test: Stability in buffer solutions pH 2 to pH 8 at 25° C.
Type: physicochemical
Procedure: Stability in buffer solutions pH 2 to pH 8 at 25° C., and in bio-relevant media (SGF pH 1.6, Fasted SIF pH 6.5 and Fed SIF pH 5.0) at 37° C., during 24 hours is monitored. The samples are analysed by LC/MS.
Buffer Solutions and Physiologically Relevant Media Used in Stability Assay:
LC Conditions: Instrument HP1100
Column: Waters XBridge C18, 2.1×50 mm, 3.5 μm
Guard column: Waters XBridge C18, 2.1×10 mm, 3.5 μm
• A) 0.1% HCOOH/H2O • B) 0.1% HCOOH/CH3CN Gradient Timetable: […]
Flow: 0.3 mL/min Column temp.: 25° C. Sample temp.: 25° C. (for stability assay in buffer solutions) • 37° C. (for stability assay in bio-relevant media) Injector volume: 3 μL (without injection program) MS Conditions: Instrument HP MS API-ES, positive ion mode Mass Range: 150-1500 Fragmentor: 100 Gain: 1.0 Treshold: 150 Step size: 0.20 Gas Temperature: 350° C. Drying Gas Flow: 13 L/min Nebulizer Pressure: 35 psig Capillary Voltage Positive 4000 V • Negative 4000 V Sample Preparation: a) For Stability Assay in Buffer Solutions
Compounds are dissolved in CH3CN to produce a 1 mg/mL stock solution. The stock solution is diluted to a concentration of 0.2 mg/mL (1 mL solution in 4 mL buffer) with appropriate buffer to produce a working solution.
Each solution at each pH is then dispatched into vials that are sealed and stored at room temperature in order to be analyzed at the proper time point. Before analysis, pH values of prepared sample solutions are checked and adjusted if neccessary.

Compound: CC[C@H]1OC(=O)[C@H](C)[C@@H](O[C@H]2C[C@@](C)(OC)[C@@H](OC(=O)CN(CC)CC)[C@H](C)O2)[C@H](C)[C@@H](O[C@@H]2O[C@H](C)C[C@H](N(C)C)[C@H]2O)[C@](C)(OC)C[C@@H](C)C(=O)N[C@H](C)[C@@H](O)[C@]1(C)O [Example 3, 4″-O-(2-diethylaminoethanoyl)-6-O-methyl-9a-aza-9a-homoerythromycin A]
- Percentage (Area %) of the compound observed in buffers (pH 4, 25° C., 6 h): 99.1 Area %
- Percentage (Area %) of the compound observed in buffers (pH 4, 25° C., 8 h): 99.2 Area %
- Percentage (Area %) of the compound observed in buffers (pH 4, 25° C., 12 h): 99.2 Area %
- Percentage (Area %) of the compound observed in buffers (pH 4, 25° C., 14 h): 99.2 Area %
- Percentage (Area %) of the compound observed in buffers (pH 4, 25° C., 18 h): 99.2 Area %
- Percentage (Area %) of the compound observed in buffers (pH 4, 25° C., 20 h): 98.9 Area %
- Percentage (Area %) of the compound observed in buffers (pH 4, 25° C., 22 h): 99.1 Area %
- Percentage (Area %) of the compound observed in buffers (pH 4, 25° C., 24 h): 99.2 Area %
- Percentage (Area %) of the compound observed in buffers (pH 4, 25° C., Initial): 100 Area %
- Percentage (Area %) of the compound observed in buffers (pH 5, 25° C., 2 h): 100 Area %
- Percentage (Area %) of the compound observed in buffers (pH 5, 25° C., 4 h): 99.9 Area %
- Percentage (Area %) of the compound observed in buffers (pH 5, 25° C., 6 h): 99.9 Area %
- Percentage (Area %) of the compound observed in buffers (pH 5, 25° C., 8 h): 99.9 Area %
- Percentage (Area %) of the compound observed in buffers (pH 5, 25° C., 12 h): 99.9 Area %
- Percentage (Area %) of the compound observed in buffers (pH 5, 25° C., 14 h): 99.9 Area %
- Percentage (Area %) of the compound observed in buffers (pH 5, 25° C., 18 h): 99.9 Area %
- Percentage (Area %) of the compound observed in buffers (pH 5, 25° C., 20 h): 99.8 Area %
- Percentage (Area %) of the compound observed in buffers (pH 5, 25° C., 22 h): 99.9 Area %
- Percentage (Area %) of the compound observed in buffers (pH 5, 25° C., 24 h): 99.9 Area %
- Percentage (Area %) of the compound observed in buffers (pH 5, 25° C., Initial): 100 Area %
- Percentage (Area %) of the compound observed in buffers (pH 6, 25° C., 2 h): 100 Area %
- Percentage (Area %) of the compound observed in buffers (pH 6, 25° C., 4 h): 100 Area %
- Percentage (Area %) of the compound observed in buffers (pH 6, 25° C., 6 h): 100 Area %
- Percentage (Area %) of the compound observed in buffers (pH 6, 25° C., 8 h): 100 Area %
- Percentage (Area %) of the compound observed in buffers (pH 6, 25° C., 12 h): 99.9 Area %
- Percentage (Area %) of the compound observed in buffers (pH 6, 25° C., 14 h): 99.8 Area %
- Percentage (Area %) of the compound observed in buffers (pH 6, 25° C., 20 h): 99.7 Area %
- Percentage (Area %) of the compound observed in buffers (pH 6, 25° C., 22 h): 99.7 Area %
- Percentage (Area %) of the compound observed in buffers (pH 6, 25° C., 24 h): 99.7 Area %
- Percentage (Area %) of the compound observed in buffers (pH 6, 25° C., Initial): 100 Area %
- Percentage (Area %) of the compound observed in buffers (pH 7, 25° C., 2 h): 100 Area %
- Percentage (Area %) of the compound observed in buffers (pH 7, 25° C., 4 h): 99.9 Area %
- Percentage (Area %) of the compound observed in buffers (pH 7, 25° C., 6 h): 99.9 Area %
- Percentage (Area %) of the compound observed in buffers (pH 7, 25° C., 8 h): 99.9 Area %
- Percentage (Area %) of the compound observed in buffers (pH 7, 25° C., 12 h): 99.7 Area %
- Percentage (Area %) of the compound observed in buffers (pH 7, 25° C., 14 h): 99.7 Area %
- Percentage (Area %) of the compound observed in buffers (pH 7, 25° C., 18 h): 99.8 Area %
- Percentage (Area %) of the compound observed in buffers (pH 7, 25° C., 20 h): 98.8 Area %
- Percentage (Area %) of the compound observed in buffers (pH 7, 25° C., 22 h): 99.7 Area %
- Percentage (Area %) of the compound observed in buffers (pH 7, 25° C., 24 h): 98.7 Area %
- Percentage (Area %) of the compound observed in buffers (pH 7, 25° C., Initial): 100 Area %
- Percentage (Area %) of the compound observed in buffers (pH 8, 25° C., 2 h): 99.9 Area %
- Percentage (Area %) of the compound observed in buffers (pH 8, 25° C., 4 h): 99.9 Area %
- Percentage (Area %) of the compound observed in buffers (pH 8, 25° C., 6 h): 99.9 Area %
- Percentage (Area %) of the compound observed in buffers (pH 8, 25° C., 8 h): 99.7 Area %
- Percentage (Area %) of the compound observed in buffers (pH 8, 25° C., 12 h): 99.5 Area %
- Percentage (Area %) of the compound observed in buffers (pH 8, 25° C., 14 h): 99.4 Area %
- Percentage (Area %) of the compound observed in buffers (pH 8, 25° C., 18 h): 98.4 Area %
- Percentage (Area %) of the compound observed in buffers (pH 8, 25° C., 20 h): 98.3 Area %
- Percentage (Area %) of the compound observed in buffers (pH 8, 25° C., 22 h): 98.2 Area %
- Percentage (Area %) of the compound observed in buffers (pH 8, 25° C., 24 h): 98.2 Area %
- Percentage (Area %) of the compound observed in buffers (pH 8, 25° C., Initial): 100 Area %
